Reference: patent US11884710B2, “Peptide compounds and methods of use in wound healing” (priority 2013, dated 2024)
Square brackets hold non-standard residues; d marks the D form. Peptide text beside a SMILES is read from it. PEG2 = NCCOCCOCCC(=O)O

What was measured:
Acinetobacter baumannii = assay: In vitro bactericidal activity against Acinetobacter baumannii; assay type: cell-based; conditions: inoculum 1×10^6 CFU/ml, 60 to 180 minute incubation
Method: (§1) In vitro bactericidal activity: The three peptide compounds BCC01-5RMP (SEQ ID NO:23), BCC002-5RMP (SEQ ID NO:21), and BCC003-5RMP (SEQ ID NO:22) were assayed for in vitro bactericidal activity against Pseudomonas aeruginosa, Escherichia coli, Salmonella typhimurium, and Acinetobacter baumannii. The starting inoculum for all experiments was 1×10^6 colony forming units (CFU)/ml. The CFU remaining at the end of 60 to 180 minute incubation was determined, and the data plotted as a log reduction in CFU/ml.

Salmonella typhimurium = assay: In vitro bactericidal activity against Salmonella typhimurium; assay type: cell-based; conditions: inoculum 1×10^6 CFU/ml, 60 to 180 minute incubation
Method: as §1

P. aeruginosa ATCC 27853 = assay type: cell-based, Pseudomonas aeruginosa; conditions: Pseudomonas; inoculum 1×10^6 CFU/ml; 60 to 180 minute incubation
Method: as §1
Table 4 further compares the activity of several other compounds, including the “5R” versions of BCC01, i.e., SEQ ID NO:20 (which comprises SEQ ID NO: 7 with five additional arginines), the “5R” version of BCC002 (i.e., SEQ ID NO:18, which comprises SEQ ID NO: 1 with five additional arginines), and the 5RMP versions of BCC01 (SEQ ID NO: 23) and BCC002 (SEQ ID NO: 21). The data generally indicate the superiority of BCC003-5RMP (SEQ ID NO:22) and BCC002-5RMP (SEQ ID NO: 21) and the superiority of the 5R or 5RMP versions of the peptide over the “AEEP only” peptide against P. aeruginosa.

Escherichia coli = assay: In vitro bactericidal activity against Escherichia coli; assay type: cell-based; conditions: E. coli; inoculum 1×10^6 CFU/ml; 60 to 180 minute incubation
Method: as §1

Pseudomonas LPS = assay: LPS binding, Limulus Amebocyte Lysate (LAL) assay; conditions: LAL method
Method: (§2) The well-characterized response of RAW264.7 macrophage cells was used to produce tumor necrosis-factor-alpha (TNF-α) in response to LPS to determine whether the peptides could dampen the release of this cytokine. […] Importantly, pre-treatment (3 hours prior to LPS addition) as well as post-treatment of the RAW264.7 cells (3 hours post LPS addition) with peptide dampened the cytokine release. […] The finding that the novel peptides bind and neutralize the effect of Pseudomonas LPS is of critical importance since this ensures that the novel therapeutic peptide compounds described herein will not only kill the bacteria, but will also neutralize the LPS endotoxin released by the bacteria which plays such an important role in the rapid progression of sepsis.
(§3) BCC01-5RMP (SEQ ID NO:23), BCC002-5RMP (SEQ ID NO:21), and BCC003-5RMP (SEQ ID NO:22) were tested for their ability to bind lipopolysaccharide (LPS) using the limulus amebocyte lysate method (LAL). […] There was no statistical difference in their ability to bind LPS using the LAL technique. The ability of the peptides to neutralize LPS was assessed by determining their ability to attenuate the release of tumor necrosis factor-alpha (TNF-α) from LPS-stimulated RAW264.7 cells (a mouse macrophage cell line). […] No significant differences were observed between the three peptides to neutralize LPS as measured by cytokine release. Peptides based on sequence 120-146 (SEQ ID NOS:28-31) also bind and neutralize Pseudomonas LPS.

[1] = test system: release of TNF-α from LPS-stimulated RAW264.7 cells; assay: LPS neutralization: TNF-α release from LPS-stimulated RAW264.7 cells; assay type: cell-based, mouse
Method: as §2, §3

HCEC monolayers = assay: In vitro scratch assay of HCEC monolayers; assay type: cell-based, human; conditions: HB-EGF 250 ng/ml
Method: (A) HCECs were grown to confluency and scratched using a 10 μl pipette tip. Scratched HCEC monolayers were treated with HB-EGF (250 ng/ml) or rCAP37 (25-2000 ng/ml), or were left untreated in basal Keratinocyte Serum Free Medium (KSFM). Wound closure was monitored at 0, 18, 24, and 48 hours utilizing a camera-equipped inverted microscope. The histogram represents data acquired at 48 hours, and the values are the mean±SEM of the percentage of wound closure. The data are representative of at least 4 independent experiments. The percentage of wound closure in treated monolayers was compared to untreated controls by one-way analysis of variance (ANOVA) followed by Dunnett's multiple comparison test, **P<0.01, *P<0.05. (B) Representative images of scratched monolayers treated with buffer control, HB-EGF, and rCAP37 (at 25, 100, and 250 ng/ml) are shown for each time point. Images were taken at 20× objective.
In vitro model of wound healing: An in vitro scratch assay was used in order to determine the ability of rCAP37 to facilitate corneal wound healing. Human corneal epithelial cells were cultured as described above until they reached a confluent monolayer. Each monolayer was scratched using a 10 μl pipette tip to create two perpendicular lines. Monolayers were treated with heparin binding-epidermal growth factor (HB-EGF, 250 ng/ml; Becton Dickinson), rCAP37 (25-2000 ng/ml), or basal KSFM (Gibco). Wound closure was monitored at 0, 18, 24, and 48 hours utilizing a camera-equipped inverted microscope (TE2000-E; Nikon, Melville, N.Y.). Time-lapse images of in vitro wound closure were obtained using a camera-equipped inverted microscope (TE2000-E; Nikon) from […]. HCEC monolayers were treated with HB-EGF, rCAP37, and basal KSFM as described above. The width of each scratch was quantitated using ImageJ software (US National Institutes of Health, Bethesda, Md.). Results are presented as the percentage of wound closure.

[2] = test system: human corneal epithelial cell (HCEC); assay: HCEC chemotaxis, modified Boyden chemotaxis chamber; assay type: cell-based; conditions: HB-EGF 50 ng/ml; positive control
Method: The effect of buffer control (0.1% BSA in Gey's buffer), heparin binding-epidermal growth factor (HB-EGF, 50 ng/ml), recombinant CAP37 (rCAP37, 250 ng/ml), 120-146QH (10^−12M, 10^−10 M, 10^−8 M, 10^−6M, and 10^−4M,) and 120-146QR (10^−10M, 10^−8M, 10^−6M, and 10^−4M) on HCEC chemotaxis was determined by the modified Boyden chemotaxis chamber method. HCEC chemotaxis was measured in response to HB-EGF, rCAP37, and peptides 120-146QH (SEQ ID NO:29) and 120-146QR (SEQ ID NO:28) after incubation for 3 hours at 37° C. Chemotaxis is expressed as a percent migration. The buffer control (no chemoattractant) is arbitrarily assigned the value of 100% migration. Data are expressed as means±SEM and are calculated from 6 observations for each test point. **P<0.01 by Wilcoxon signed-rank test as compared to controls.
Chemotaxis: Chemotaxis assays were performed using the modified Boyden chemotaxis chamber assay. Peptide 120-146QH was used at 10^−4 M, 10^−6 M, 10^−8 M, 10^−10 M, and 10^−12 M, and peptide 120-146QR was used at 10^−4 M, 10^−6 M, 10^−8M, and 10^−10M.

[3] = test system: mouse corneal epithelium abrasion; assay: In vivo model of corneal wound healing; conditions: HB-EGF 250 ng/ml at 0 and 16 hours
Method: (§4) The mouse corneal epithelium was removed using the AlgerBrush II (The Alger Company, Inc., Lago Vista, Tex.), and corneal abrasions were treated at 0 hours and 16 hours with peptide 95-122 (10^−5 M), or were left untreated in 0.9% sodium chloride (saline vehicle) Wound healing was monitored at 0, 16, and 24 hours using fluorescein staining and a camera-equipped inverted microscope. Data are represented as the percentage of wound closure at 16 hours and 24 hours and are expressed as means±SEM. The data are representative of at least 6 mice per group. *P<0.05 by unpaired t-test as compared to vehicle (0.9% sodium chloride) treated controls.
as §4, with “II,” for “II (The Alger Company, Inc., Lago Vista, Tex.),”, “0” for “0 hours”, “120-146WH (10^−8 M or 10^−6” for “95-122 (10^−5”, “vehicle control).” for “vehicle)”, “group. ***P<0.001,” for “group.”
(A) The epithelium of the mouse cornea was removed using the AlgerBrush II, and corneal abrasions were treated at 0 and 16 hours with HB-EGF (250 ng/ml), rCAP37 (250 ng/ml), or vehicle control (normal saline). Wound closure was monitored at 0, 16, 24, and 48 hours using fluorescein staining and a camera-equipped inverted microscope. Data are represented as the percentage of wound closure and are expressed as mean±SEM. The data are representative of at least 6 mice per group. The percentage of wound closure in response to treatment was compared to vehicle-treated controls by unpaired t-test, **P<0.01, *P<0.05. (B) Representative images of mouse corneal wounds are shown at 0, 16, 24, and 48 hours following treatment with vehicle, HB-EGF, and CAP37. Black dotted lines indicate the wound edge.
In vivo model of corneal wound healing: The in vivo model of wound healing was carried out using a disposable biopsy punch (2 mm, Miltex, York, Pa.) to demarcate the mouse cornea and a 0.5 mm burr using the AlgerBrush II (The Alger Company, Inc., Lago Vista, Tex.) to remove the corneal epithelium.
In vivo model of wound healing: Mice were anesthetized using ketamine (100 mg/kg; Bionichepharma, LLC., St. Lake Forrest, Ill.) and xylazine ([…]; Rompun; Bayer Corp., Shawnee Mission, Kans.), and the right cornea was wounded as follows. A disposable biopsy punch (2 mm, Miltex, York, Pa.) was used to demarcate the mouse cornea. The corneal epithelium was carefully removed within the 2 mm demarcated area with a 0.5 mm burr using the AlgerBrush II (The Alger Company, Inc., Lago Vista, Tex.). The corneal abrasions were treated at 0 and 16 hours with HB-EGF (250 ng/ml), rCAP37 (250 ng/ml), or vehicle control (0.9% sodium chloride, pH 5.5, Baxter, Deerfield, Ill.). Corneal abrasions were visualized using sterile fluorescein sodium ophthalmic strips USP (FLUORETS®, Chauvin Laboratory, Aubenas, France) dampened with sterile PBS. […] The areas of the open wound were quantitated using ImageJ software (US National Institutes of Health), and the results were reported as the percentage of wound closure.

Molecule: CC[C@H](C)[C@H](NC(=O)[C@H](CC(C)C)NC(=O)[C@H](C)NC(=O)CNC(=O)CNC(=O)[C@H](CS)NC(=O)[C@H](Cc1ccccc1)NC(=O)[C@H](Cc1c[nH]cn1)NC(=O)[C@H](CCCNC(=N)N)NC(=O)CNC(=O)[C@H](CCC(N)=O)NC(=O)[C@H](CC(N)=O)NC(=O)[C@H](CCCNC(=N)N)NC(=O)[C@H](CCCNC(=N)N)NC(=O)[C@H](CCCNC(=N)N)NC(=O)[C@H](CCCNC(=N)N)NC(=O)CCOCCOCCNC(=O)CCOCCOCCN)C(=O)N[C@@H](Cc1c[nH]cn1)C(=O)N[C@@H](C)C(=O)N[C@@H](CCCNC(=N)N)C(=O)N[C@@H](Cc1ccccc1)C(=O)N[C@H](C(=O)N[C@@H](CCSC)C(=O)N[C@H](C(=O)N[C@@H](C)C(=O)N[C@@H](C)C(=O)N[C@@H](CO)C(=O)N[C@@H](CS)C(=O)N[C@@H](Cc1ccccc1)C(=O)N[C@@H](CCC(N)=O)C(=O)N[C@@H](CCCNC(=N)N)C(=O)O)[C@@H](C)O)C(C)C [BCC01-5RMP] (H-[PEG2][PEG2]RRRRNQGRHFCGGALIHARFVMTAASCFQR-OH; C-terminus assumed)
- in vitro bactericidal activity, in words (Acinetobacter baumannii): most active
- in vitro bactericidal activity, in words (Salmonella typhimurium): strong, but lesser activity
- in vitro bactericidal activity, in words (P. aeruginosa ATCC 27853): most active
- in vitro bactericidal activity, in words (Escherichia coli): strong, but lesser activity
- binding of Pseudomonas LPS (Pseudomonas LPS): bound Pseudomonas LPS
- neutralization of LPS: attenuation of TNF-α release [1]: attenuate the release of TNF-α

B1: HB-EGF: heparin binding-epidermal growth factor, used as the positive control (protein, UniProt Q99075 63-148, looked up)
Heparin-binding EGF-like …: DLQEADLDLLRVTLSSKPQALATPNKEEHGKRKKKGKGLGKKRDPCLRKYKDFCIHGECKYVKELRAPSCICHPGYHGERCHGLSL
- time to complete closure of scratch wounds (HCEC monolayers; CAP37 250 ng/ml): ≤ 24 h
- percentage wound closure (HCEC monolayers; positive control): ~88%
- migration of HCECs vs buffer control, in words [2]: significant increase in migration
- corneal wound closure vs buffer control, in words [3]: significantly higher compared to the buffer control
